From patent US7989496B2, “Transdermal delivery of ketoprofen polar derivatives” (Noven Pharmaceuticals, Inc., priority 2006, dated 2011)

Experiment: Human cadaver skin permeation study in modified Franz diffusion cells
Settings: for 72 hr Cumulative Permeation: drug-in-adhesive formulation, human cadaver stratum corneum, Franz cells, 32° C.; for transdermal delivery rate compared with ketoprofen: previous work by the inventor on non-polar ketoprofen derivatives; for delivery rate (average flux through cadaver skin), FIG. 2: ketoprofen, polar and non-polar derivatives

Compound	72 hr Cumulative Permeation [µg/cm²]	transdermal delivery rate compared with ketoprofen	delivery rate (average flux through cadaver skin), FIG. 2 (cadaver skin in Franz cells)	skin permeation over 72 hours (over 72 hours)	delivery rate (average flux through cadaver skin), FIG. 1 (non-polar ketoprofen derivatives, approximate 84 hour time period, cadaver skin in Franz cells)
CCOC(=O)C(C)c1cccc(C(=O)c2ccccc2)c1 (stereo not shown) [Ketoprofen Ethyl Ester]	170	lower delivery rates than ketoprofen			
CC(C)OC(=O)C(C)c1cccc(C(=O)c2ccccc2)c1 (stereo not shown) [Ketoprofen Isopropyl Ester]	61.2	lower delivery rates than ketoprofen			
CC(C(=O)OCC(O)CO)c1cccc(C(=O)c2ccccc2)c1 (stereo not shown) [Ketoprofen Monoglycerol Ester]	214		faster delivery rate than each of the non-polar ester derivatives tested		
CC(C(=O)O)c1cccc(C(=O)c2ccccc2)c1 (stereo not shown) [Ketoprofen, 2-(3-benzoyl-phenyl)-propionic acid]			highest delivery rate	about 1110 μg/cm^2	
COC(=O)C(C)c1cccc(C(=O)c2ccccc2)c1 (stereo not shown) [methyl ester of ketoprofen]		lower delivery rates than ketoprofen			faster delivery rate than each of the ethyl ester and isopropyl ester
